Experimental findings from article PMC3605511, “Tumor P-Glycoprotein Correlates with Efficacy of PF-3758309 in in vitro and in vivo Models of Colorectal Cancer” (Frontiers in Pharmacology, 2013) are described below.

One data set concerns DLD1 Scr. In words: Proliferation, control shRNA, DLD1 Scr. Format: cell-based. As to conditions: Homo sapiens, DLD-1; DLD1 Scr:50, control shRNA. As to the method:
(§1) Cytotoxic/proliferation effects were determined using the sulforhodamine B (SRB) assay (Skehan et al., [1990]) or by resazurin. Briefly, cells in logarithmic growth phase were transferred to 96 well flat bottom plates with lids. One-hundred microliter cell suspensions containing 1500–5000 viable cells were plated into each well and incubated overnight prior to exposure with increasing concentrations of PF-309 for 3–5 days, dependent upon cell type. Media was removed and cells were fixed with cold 10% trichloroacetic acid for 30 min at 4°C. Cells were then washed with water and stained with 0.4% SRB (Fisher Sci., Pittsburgh, PA, USA) for 30 min at room temperature, washed again with 1% acetic acid, followed by stain solubilization with 10 mM tris at room temperature. The plate was then read on a plate reader (Biotek Synergy 2, Winooski, VT, USA) set at an absorbance wavelength of 565 nm. Cell proliferation curves were derived from the raw absorbance (OD) data.
The pGIPZ Pgp-specific shRNA expression cassettes, along with control shRNA plasmids including the original pGIPZ vector were purchased from Open Biosystems (Birmingham, AL, USA). […] Successful knockdown of specific genes and gene products was confirmed by semi-quantitative RT-PCR and immunoblotting with specific antibodies. […]

The next data set concerns SW1116. In words: Cell proliferation assay, SW1116. The following applies: Homo sapiens, SW 1116; SW1116, 72 h, SRB assay. Format: cell-based. As to the method: as §1
(§2) Since PF-309 appeared to be a strong P-gp and BCRP substrates, we sought to evaluate if the transporters influenced sensitivity in vitro. We evaluated the sensitivity of CRC cell lines to PF-309 treatment in a panel of 27 lines. Cells were exposed to PF-309 at a range of concentrations for 72 h and cell content measured by SRB assay (see Pitts et al., [2013]). […]

In the next data set the target is T1, P-gp (Homo sapiens, UniProt P08183).
T1 construct: expressed in transfected cells; host or cells: MDR1-MDCK cells (canine kidney MDCK)
Nature of the data set: MDR1-MDCK transwell assay (P-gp efflux). Format: in vitro ADME. As to conditions: dog, ratio of B → A flux to A → B flux, >2 = substrate. As to the method: (§3) Permeability and transporter substrate assays were performed as previously published (Feng et al., [2008]; Callegari et al., [2011]; Di et al., [2011]). Permeability assays were conducted in MDCKII-LE cells, which were generated by isolation of a subpopulation of cells with low expression of endogenous P-gp (Feng et al., [2008]; Callegari et al., [2011]; Di et al., [2011]). The use of MDCKII-LE cells are used to measure the passive permeability of compounds in place of MDCK wild-type or Caco-2 cells since both MDCK wild-type and Caco-2 cells are known to have some level of endogenous transporter expression which can affect the permeability measurement. P-gp efflux was determined in MDR1-MDCK cells and BCRP efflux was measured in BCRP-MDCKII-LE cells.
(§4) MDR1-MDCK and BCRP-MDCKII-LE transwell assays measure the effect of P-gp and BCRP, respectively, on transcellular flux. The efflux ratio, ratio of the B → A flux to the A → B flux, of PF-309 was measured to be 34.9 ± 7.9 in the MDR1-MDCK assay, indicating it is a strong substrate for P-gp. PF-309 was also determined to be substrate for BCRP as the efflux ratio was measured to be 7.6 ± 1.1. As a reference, compounds with efflux ratios >2 are considered to be substrates (Callegari et al., [2011]).

The target of a further data set is T2, BCRP (Homo sapiens, UniProt Q9UNQ0).
T2 construct: expressed in transfected cells; host or cells: BCRP-MDCKII-LE cells (canine MDCKII subpopulation with low endogenous P-gp)
Nature of the data set: BCRP-MDCKII-LE transwell assay (BCRP efflux). Format: in vitro ADME. Also noted: A → B: scale not given here. As to the method:
as §3, §4

The next data set has as its system SW837. Nature of the data set: Cell proliferation assay, SW837. Format: cell-based. As to conditions: Homo sapiens; SW837, 72 h, SRB assay. As to the method:
as §1, §2

The next data set concerns HT29. In words: Cell proliferation assay, HT29. Format: cell-based. As to conditions: Homo sapiens, HT-29; HT29, 72 h, SRB assay. The method, then: as §1, §2

Some results are limits rather than exact numbers.

T2 sequence (Q9UNQ0 whole entry): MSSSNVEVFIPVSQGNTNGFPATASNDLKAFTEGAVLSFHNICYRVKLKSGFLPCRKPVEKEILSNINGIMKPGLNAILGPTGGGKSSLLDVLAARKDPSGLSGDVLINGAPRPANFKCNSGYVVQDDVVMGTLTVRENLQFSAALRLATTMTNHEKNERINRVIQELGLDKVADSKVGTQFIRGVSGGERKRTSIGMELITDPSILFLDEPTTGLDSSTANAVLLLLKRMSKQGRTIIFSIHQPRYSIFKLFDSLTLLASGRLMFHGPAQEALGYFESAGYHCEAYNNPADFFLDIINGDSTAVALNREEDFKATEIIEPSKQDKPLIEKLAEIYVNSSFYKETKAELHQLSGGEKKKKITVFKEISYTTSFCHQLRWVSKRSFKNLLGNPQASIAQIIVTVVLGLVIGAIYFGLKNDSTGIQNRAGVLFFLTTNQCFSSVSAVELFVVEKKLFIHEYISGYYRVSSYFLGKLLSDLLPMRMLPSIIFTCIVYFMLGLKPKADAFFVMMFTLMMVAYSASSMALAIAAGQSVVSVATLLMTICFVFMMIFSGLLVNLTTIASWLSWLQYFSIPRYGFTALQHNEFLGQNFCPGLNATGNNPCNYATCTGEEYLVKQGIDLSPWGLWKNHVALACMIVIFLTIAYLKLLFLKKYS
T1 sequence (P08183 whole entry): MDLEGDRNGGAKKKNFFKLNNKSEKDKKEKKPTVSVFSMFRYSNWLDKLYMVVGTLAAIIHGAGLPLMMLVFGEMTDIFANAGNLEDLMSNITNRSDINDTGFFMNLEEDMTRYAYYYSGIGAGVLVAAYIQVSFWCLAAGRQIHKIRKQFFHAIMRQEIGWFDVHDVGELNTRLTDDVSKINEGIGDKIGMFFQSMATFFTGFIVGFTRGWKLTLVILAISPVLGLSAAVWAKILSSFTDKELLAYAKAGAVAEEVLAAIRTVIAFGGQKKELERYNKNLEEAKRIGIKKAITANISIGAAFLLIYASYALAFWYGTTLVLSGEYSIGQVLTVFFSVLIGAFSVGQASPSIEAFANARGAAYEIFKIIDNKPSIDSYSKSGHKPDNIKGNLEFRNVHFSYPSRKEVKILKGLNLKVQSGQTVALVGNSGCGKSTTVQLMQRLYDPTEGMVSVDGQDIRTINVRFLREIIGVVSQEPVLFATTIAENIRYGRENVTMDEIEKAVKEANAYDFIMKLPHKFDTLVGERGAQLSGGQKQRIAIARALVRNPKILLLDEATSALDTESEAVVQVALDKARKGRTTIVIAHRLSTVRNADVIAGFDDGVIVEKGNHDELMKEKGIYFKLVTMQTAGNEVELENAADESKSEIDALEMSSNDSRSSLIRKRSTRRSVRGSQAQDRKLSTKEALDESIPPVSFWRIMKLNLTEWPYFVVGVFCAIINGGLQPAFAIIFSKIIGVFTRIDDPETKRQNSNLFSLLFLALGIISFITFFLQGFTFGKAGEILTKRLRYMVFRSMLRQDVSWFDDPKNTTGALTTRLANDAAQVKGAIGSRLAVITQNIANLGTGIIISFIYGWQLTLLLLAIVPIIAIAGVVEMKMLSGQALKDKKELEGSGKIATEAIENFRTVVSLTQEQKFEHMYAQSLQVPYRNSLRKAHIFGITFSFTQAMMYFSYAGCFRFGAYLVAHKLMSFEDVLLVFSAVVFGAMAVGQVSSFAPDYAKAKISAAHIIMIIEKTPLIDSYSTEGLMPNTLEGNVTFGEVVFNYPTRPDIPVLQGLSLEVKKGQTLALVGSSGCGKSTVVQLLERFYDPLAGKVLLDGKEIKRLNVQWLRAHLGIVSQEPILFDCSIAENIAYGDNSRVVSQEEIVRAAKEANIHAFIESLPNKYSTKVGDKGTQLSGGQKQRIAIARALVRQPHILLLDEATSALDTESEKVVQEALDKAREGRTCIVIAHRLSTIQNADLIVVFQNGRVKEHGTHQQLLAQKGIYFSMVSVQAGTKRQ

As for `Cc1nc(Nc2n[nH]c3c2CN(C(=O)N[C@H](CN(C)C)c2ccccc2)C3(C)C)c2sccc2n1` [PF-309], the IC50 was 103 nM in the data set with DLD1 Scr, over 1000 nM with SW1116, over 1000 nM in the data set with SW837 and over 1000 nM with HT29. For the same compound, the efflux ratio on P-gp amounted to 34.9 ± 7.9; at BCRP (dog, ratio of B → A flux to A → B flux, >2 = substrate), 7.6. The “A → B” value at BCRP (transwell flux) was “;1.4 ± 0.1 cm/s”.
